In test [1] the test system is P. aeruginosa ATCC 27853. Description: MIC assay, CLSI broth microdilution, P. aeruginosa ATCC 27853 (APAE001). It is filed as cell-based. Conditions: for MIC: Pseudomonas aeruginosa. The procedure, abridged:
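Broth microdilution per CLSI M7-A7, with serial two-fold compound dilutions in Mueller Hinton Broth mixed 1:1 with inoculum. Colonies from a previous-day agar plate were suspended in saline to a final 5×10^5 CFU/mL. Plates were incubated 20 hours at 35° C. in ambient air.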
On the technique in general: Broth dilution looks for growth in wells or tubes with falling amounts of substance.

Test [2] concerns E. coli ATCC 25922. Description: murine septicemia model of infection, E. coli. It is filed as in vivo. Conditions: mice inoculated IP, single SC or IV dose 1 hour after challenge, mortality 7 days; ED50 values are mg/kg. On the procedure:
(§1) Two models were run on each compound, using E. coli and P. aeruginosa QC bacterial strains. Both studies employed the same design. […] At 1 hour after bacterial challenge, the mice received a single SC or IV […] dose of vehicle or test substance to assess in vivo anti-infective activity. Mortality was recorded once daily for 7 days after bacterial inoculation.

The test system of test [3] is E. coli ATCC 25922. In words: MIC assay, CLSI broth microdilution, E. coli ATCC 25922 (AECO001). It is filed as cell-based. The settings on record: for MIC: Escherichia coli. The procedure, abridged:
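Bacteria from overnight agar colonies, suspended in saline, added to serial two-fold dilutions in Mueller Hinton Broth at 5×10^5 CFU/mL final. Incubation 35° C., 20 hours, ambient air, per CLSI M7-A7 reference method.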

Test [4] relates to P. aeruginosa ATCC 27853. In words: murine septicemia model of infection, P. aeruginosa. It is filed as in vivo. The settings on record: mice inoculated IP, single SC or IV dose 1 hour after challenge, mortality 7 days; ED50 values are mg/kg. How it is done:
as §1

Setting [5] is: ATCC27853, Table 2, read-out: MIC P. aeruginosa.
The mark [6] stands for this setting: APAE001 is ATCC27853, 35° C., 20 hours, read-out: MIC APAE001.
Setting [7] is: AECO001 is ATCC25922, 35° C., 20 hours, read-out: MIC AECO001.
Where [8] appears, read: ATCC27853, 20 h, read-out: MIC APAE001.
Where [9] appears, read: ATCC25922, 20 h, read-out: MIC AECO001.

Values after ≈ are worked out from the molar mass of the structure shown. Read-outs that look alike come from different tables or passages of the source.

As for `CN[C@@H]1[C@@H](O)[C@@H](O[C@@H]2[C@@H](O)[C@H](O[C@H]3OC(CNCCCN)=CC[C@H]3N)[C@@H](N)C[C@H]2NC(=O)C2(O)CNC2)OC[C@]1(C)O` [Example 57], the MIC in test [1] (setting [5]), in test [1] (setting [6]) and in test [3] (setting [7]) was below 1 µg/mL in each case. In addition, in test [2], the “ED50/MIC E. Coli” value worked out at 2. In addition, in test [4], the “ED50/MIC P. aeruginosa” value is given as 14.
As for gentamicin [reference compound], the “MIC P. aeruginosa” value in test [1] (Table 2) is listed as “A (MIC's of 1.0 μg/mL or less = A)”. In test [2], the “ED50/MIC E. Coli” value worked out at 2.4. In test [3] (Table 2), the “MIC E. coli” value is listed as “A (MIC's of 1.0 μg/mL or less = A)”. Moreover, the “ED50/MIC P. aeruginosa” value in test [4] is 12.
In the case of `CN[C@@H]1[C@@H](O)[C@@H](O[C@@H]2[C@@H](O)[C@H](O[C@H]3OC(CN)=CC[C@H]3NC(=N)N)[C@@H](N)C[C@H]2NC(=O)[C@@H](O)CCN)OC[C@]1(C)O` [Example 103, 2′-Guanidinium-1-(4-amino-2(S)-hydroxy-butyryl)-sisomicin], the minimal inhibitory concentration (MIC) in test [1] (setting [5]), in test [1] (setting [6]) and in test [3] (setting [7]) was below 1 µg/mL throughout. For the same compound, in test [2], the “ED50/MIC E. Coli” value was found to be 2. For the same compound, the “ED50/MIC P. aeruginosa” value in test [4] is recorded as 6.
Consider `CN[C@@H]1[C@@H](O)[C@@H](O[C@@H]2[C@@H](O)[C@H](O[C@H]3OC(CN)=CC[C@H]3NC3CNC3)[C@@H](N)C[C@H]2NC(=O)[C@@H](O)CCN)OC[C@]1(C)O` [Example 96, 2′-(Azetidin-3-yl)-1-(4-amino-2(S)-hydroxy-butyryl)-sisomicin], for which the MIC in test [1] (setting [5]) was 1 to 16 µg/mL (≈ 1.66 to 26.5 µM); in test [1] (setting [6]), 1 to 16 µg/mL (≈ 1.66 to 26.5 µM); in test [3] (setting [7]), below 1 µg/mL. Besides, the “ED50/MIC P. aeruginosa” value in test [4] was 3.
Turning to `NCC[C@H](O)C(=O)N[C@@H]1C[C@H](N)[C@@H](O[C@H]2O[C@H](CN)[C@@H](O)[C@H](O)[C@H]2O)[C@H](O)[C@H]1O[C@H]1O[C@H](CO)[C@@H](O)[C@H](N)[C@H]1O` [Amikacin, amikacin, reference compound], the MIC is 1 to 16 µg/mL (≈ 1.71 to 27.3 µM) in test [1] (setting [5]) and 1 to 16 µg/mL (≈ 1.71 to 27.3 µM) in test [3] (ATCC25922, Table 2, read-out: MIC E. coli). In addition, in test [2], the “ED50/MIC E. Coli” value stood at 1.5. In addition, the “ED50/MIC P. aeruginosa” value in test [4] is reported as 13.
With `CN[C@@H]1[C@@H](O)[C@@H](O[C@@H]2[C@@H](O)[C@H](O[C@H]3OC(CNCC4CCNCC4)=CC[C@H]3N)[C@@H](N)C[C@H]2NC(=O)[C@@H](O)CN)OC[C@]1(C)O` [Example 15, 6′-(Methyl-piperidin-4-yl)-1-(3-amino-2(S)-hydroxy-propionyl)-sisomicin], the figures for the MIC in test [1] (setting [5]), in test [1] (setting [6]) and in test [3] (setting [7]) were 1 to 16 µg/mL (≈ 1.58 to 25.3 µM), 1 to 16 µg/mL (≈ 1.58 to 25.3 µM) and below 1 µg/mL, respectively. Moreover, in test [4], the “ED50/MIC P. aeruginosa” value amounted to 1.
As to `CN[C@@H]1[C@@H](O)[C@@H](O[C@@H]2[C@@H](O)[C@H](O[C@H]3OC(CNC[C@H]4C[C@H](N)C4)=CC[C@H]3N)[C@@H](N)C[C@H]2NC(=O)[C@@H](O)CN)OC[C@]1(C)O` [Example 59, 6′-(Methyl-trans-3-amino-cyclobutyl)-1-(3-amino-2(S)-hydroxy-propionyl)-sisomicin], the MIC in test [1] (setting [8]) was 1 to 16 µg/mL (≈ 1.62 to 25.9 µM); in test [3] (setting [9]) it was below 1 µg/mL.
As to `CN[C@@H]1[C@@H](O)[C@@H](O[C@@H]2[C@@H](O)[C@H](O[C@H]3OC(CNCC4CC4)=CC[C@H]3N)[C@@H](N)C[C@H]2NC(=O)[C@@H](O)CN)OC[C@]1(C)O` [Example 13, 6′-(Methyl-cyclopropyl)-1-(3-amino-2(S)-hydroxy-propionyl)-sisomicin], the MIC in test [1] (setting [6]) is above 16 µg/mL; in test [3] (setting [7]), 1 to 16 µg/mL (≈ 1.7 to 27.2 µM). The compound also had an MIC AECO001 in test [3] (Table 3, E. coli ATCC25922) of 1 µg/mL (≈ 1.7 µM).
In the case of `CN[C@@H]1[C@@H](O)[C@@H](O[C@@H]2[C@@H](O)[C@H](O[C@H]3OC(CNCC4CNC4)=CC[C@H]3N)[C@@H](N)C[C@H]2NC(=O)[C@@H](O)CN)OC[C@]1(C)O` [Example 73, 6′-(Methyl-azetidin-3-yl)-1-(3-amino-2(S)-hydroxy-propionyl)-sisomicin], the MIC in test [1] (setting [8]) and in test [3] (setting [9]) was 1 to 16 µg/mL (≈ 1.66 to 26.5 µM) in each case.
Take `CN[C@@H]1[C@@H](O)[C@@H](O[C@@H]2[C@@H](O)[C@H](O[C@H]3OC(CNC[C@H](O)CO)=CC[C@H]3N)[C@@H](N)C[C@H]2NC(=O)[C@@H](O)CCN)OC[C@]1(C)O` [Example 28, 6′-(2(S)-Hydroxy-propanol)-1-(4-amino-2(S)-hydroxy-butyryl)-sisomicin]: the MIC in test [1] (setting [8]) and in test [3] (setting [9]) was 1 to 16 µg/mL (≈ 1.61 to 25.7 µM) in each case.
Regarding `CN[C@@H]1[C@@H](O)[C@@H](O[C@@H]2[C@@H](O)[C@H](O[C@H]3OC(CN)=CC[C@H]3NC[C@H](C)N)[C@@H](N)C[C@H]2NC(=O)[C@@H](O)CCN)OC[C@]1(C)O` [Example 95, 2′-(2(S)-Amino-propyl)-1-(4-amino-2(S)-hydroxy-butyryl)-sisomicin], the minimum inhibitory concentration (MIC) is above 16 µg/mL in test [1] (setting [8]) and below 1 µg/mL in test [3] (setting [9]).
With `CN[C@@H]1[C@@H](O)[C@@H](O[C@@H]2[C@@H](O)[C@H](O[C@H]3OC(CNC(=N)N)=CC[C@H]3NC(=N)N)[C@@H](N)C[C@H]2N)OC[C@]1(C)O` [Example 105, 6′,2′-bis-Guanidinium-sisomicin], the MIC in test [1] (setting [8]) and in test [3] (setting [9]) was above 16 µg/mL in each case.
As for `CN[C@@H]1[C@@H](O)[C@@H](O[C@@H]2[C@@H](O)[C@H](O[C@H]3OC(CNCC(O)C(N)=O)=CC[C@H]3N)[C@@H](N)C[C@H]2NC(=O)[C@@H](O)CN)OC[C@]1(C)O` (stereo partly drawn) [Example 21, 6′-(2-Hydroxy-3-propionamide)-1-(3-amino-2(S)-hydroxy-propionyl)-sisomicin], the MIC in test [1] (setting [8]) and in test [3] (setting [9]) was 1 to 16 µg/mL (≈ 1.61 to 25.7 µM) in each case.
Consider `CN[C@@H]1[C@@H](O)[C@@H](O[C@@H]2[C@@H](O)[C@H](O[C@H]3OC(CNC[C@H](O)C(=O)O)=CC[C@H]3N)[C@@H](N)C[C@H]2NC(=O)[C@@H](O)CCN)OC[C@]1(C)O` [Example 50, 6′-(2(S)-Hydroxy-3-propanoic)-1-(4-amino-2(S)-hydroxy-butyryl)-sisomicin], for which the MIC in test [1] (setting [8]) and in test [3] (setting [9]) was above 16 µg/mL each time.
Take `CN[C@@H]1[C@@H](O)[C@@H](O[C@@H]2[C@@H](O)[C@H](O[C@H]3OC(CN)=CC[C@H]3NCC(N)CO)[C@@H](N)C[C@H]2NC(=O)[C@@H](O)CCN)OC[C@]1(C)O` (stereo partly drawn) [Example 97, 2′-(2-Amino-propanol)-1-(4-amino-2(S)-hydroxy-butyryl)-sisomicin]: the minimal inhibitory concentration (MIC) in test [1] (setting [8]) was 1 to 16 µg/mL (≈ 1.61 to 25.7 µM); in test [3] (setting [9]), below 1 µg/mL.
On to `CN[C@@H]1[C@@H](O)[C@@H](O[C@@H]2[C@@H](O)[C@H](O[C@H]3OC(CN)=CC[C@H]3NCC3CCNC3)[C@@H](N)C[C@H]2NC(=O)[C@@H](O)CCN)OC[C@]1(C)O` (stereo partly drawn) [Example 84, 2′-(Methyl-pyrrolidin-3-yl)-1-(4-amino-2(S)-hydroxy-butyryl)-sisomicin], for which the figures for the MIC in test [1] (setting [8]) and in test [3] (setting [9]) were 1 to 16 µg/mL (≈ 1.58 to 25.3 µM) and below 1 µg/mL, respectively.
The matching figures for `CN[C@@H]1[C@@H](O)[C@@H](O[C@@H]2[C@@H](O)[C@H](O[C@H]3OC(CN)=CC[C@H]3NCC(C)(C)CN(C)C)[C@@H](N)C[C@H]2NC(=O)[C@@H](O)CCN)OC[C@]1(C)O` [Example 94, 2′-(N, N-Dimethyl-2,2-dimethyl-3-amino-propyl)-1-(4-amino-2(S)-hydroxy-butyryl)-sisomicin]: above 16 µg/mL and 1 to 16 µg/mL (≈ 1.51 to 24.2 µM).
Regarding `CN[C@@H]1[C@@H](O)[C@@H](O[C@@H]2[C@@H](O)[C@H](O[C@H]3OC(CNCC4(N)CCC4)=CC[C@H]3N)[C@@H](N)C[C@H]2NC(=O)[C@@H](O)CN)OC[C@]1(C)O` [Example 56, 6′-(Methyl-1-amino-cyclobutyl)-1-(3-amino-2(S)-hydroxy-propionyl)-sisomicin], the minimal inhibitory concentration (MIC) in test [1] (setting [8]) is above 16 µg/mL; in test [3] (setting [9]), below 1 µg/mL.

As a reminder, the MIC is the least concentration at which growth counts as inhibited.

For the origin of these results see patent US11117915B2, “Antibacterial aminoglycoside analogs” (Cipla USA, Inc., priority 2007, dated 2021).
